For the experiment, the system named is bone marrow-derived dendritic cells. Nature of the experiment: Migration filter chemotaxis assay (chemotaxis index). Format: cell-based. On the procedure: The formyl peptide fMLP (formyl-Met-Leu-Phe) chemoattractant has been studied in addition to the protein chemokine MIP-3α. The formyl peptide is a bacterial byproduct that attracts DC's to sites of infection. It has been reported in the literature to be attractive for iDC's in mice and humans. […] For these experiments, DC's were placed on the top of a migration filter containing 5-μm pores with a reservoir of fMLP (or MIP-3α) at the indicated concentration on the other side. After 90 minutes, the number of cells migrating in response to the chemoattractants was counted and compared to controls. In FIG. 18, CI is the chemotaxis index, defined as (number of migrated cells in chemokine)/(number of migrated cells in control without chemokine).
The literature reports CI up to ≈5 max for bone-marrow-derived dendritic cells (BMDC's), but this experiment was carried out on late-stage DC cultures (DC's are starting to mature on Day 7) and the culture was not purified, thus a significant contamination with neutrophils is likely present; thus the real CI is possibly higher.

Data on two substances can be found in patent US20060078540A1, “Dendritic cell nodes” (priority 2003, published 2006).

MIP-3α: protein chemokine: the “concentration giving maximal migration” value (previous experiments, in line with literature reports) turned out to be 1 µg/mL.

With formyl-Met-Leu-Phe [fMLP], the “maximal potency of attraction of dendritic cells” value (5-μm pore migration filter, 90 minutes, Day 7 unpurified cultures, high concentrations of fMLP) is “comparable to MIP-3α”.
